Reference: patent publication US20260265220A1, “GALPHA12 INHIBITORS AND METHODS USING SAME” (RUTGERS, THE STATE UNIVERSITY OF NEW JERSEY, priority 2022, published 2026)
Values joined by “and” are separate entries in the source; they are usually repeats but may differ in a detail not shown here. Equal entries are not always repeated. “Also recorded” adds a separate entry of the source. Where two headings read alike, the source gives them in different places.

Experiments:
Gα12 = target: T1, Gα12 (Homo sapiens, UniProt Q03113); test: Gα12 luciferase reporter assay in hTERT-SRE immortalized airway smooth muscle cells, carbachol stimulated; type: cell-based; settings: carbachol (CCh) stimulated, dose response
T1 sequence (Q03113 1-381): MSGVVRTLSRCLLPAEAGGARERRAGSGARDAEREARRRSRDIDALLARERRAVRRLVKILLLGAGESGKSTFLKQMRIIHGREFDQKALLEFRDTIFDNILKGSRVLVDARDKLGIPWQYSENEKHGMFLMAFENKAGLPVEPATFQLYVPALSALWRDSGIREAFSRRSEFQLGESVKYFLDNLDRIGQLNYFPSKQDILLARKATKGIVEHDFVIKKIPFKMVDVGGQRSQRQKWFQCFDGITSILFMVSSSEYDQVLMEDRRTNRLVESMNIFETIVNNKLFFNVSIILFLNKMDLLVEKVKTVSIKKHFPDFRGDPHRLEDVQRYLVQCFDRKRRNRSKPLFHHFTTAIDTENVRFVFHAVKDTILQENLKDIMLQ
Description: FIGS. 1A-1C show an experimental approach to the identification of Gα12 modulators using hTERT-SRE human telomerase reverse transcriptase immortalized airway smooth muscle cells. FIG. 1A: provides a schematic representation of Gα12-activated luciferase reporter. […] FIG. 1C: provides a detailed schematic showing the downstream effects of Gα12/13 activation and/or inhibition, wherein serum response element (SRE) may be detected by a luciferase assay, and pAKT and pMLC may be detected by Western blotting. A Gα12 luciferase reporter assay was used to evaluate the potential of analogues of compound 1 as bronchodilators (FIGS. 2A-2C), wherein the assay utilized hTERT-SRE telomerase reverse transcriptase immortalized airway smooth muscle cells. In certain embodiments, the Gα12 pathway is activated with carbachol (CCh), resulting in downstream transcription of a […]/luciferase fusion protein (FIG. 1A), and consequently, a fluorescence signal (FIG. 1B). In certain embodiments, detection of a decrease in observed fluorescent signal indicates inhibition of Gα12. Further, activation of the Gα12 pathway results in elevated levels of phosphorylated AKT (pAKT) and MLC (pMLC) (FIG. 1C). In certain embodiments, detection of a decrease in pAKT and/or pMLC indicates inhibition of Gα12.

[1] = test system: MLC phosphorylation (pMLC); test: Immunoblot analysis of myosin light chain phosphorylation (pMLC) in airway smooth muscle cells; type: cell-based, human; settings: for agonist specificity of the effect on pMLC activation: carbachol versus histamine; for potency and efficacy on carbachol-induced pMLC activation: relative to the parent compound 1 (BDF)
Procedure: (§1) Compounds 1-3 were evaluated for inhibition of AKT and MLC phosphorylation. As described elsewhere herein, phosphorylation of AKT and/or MLC can occur with activation of the Gα12 pathway. Accordingly, in certain embodiments, detection of a decrease in pAKT and/or pMLC indicates inhibition of Gα12.
(§2) The immunoblot analysis of phosphorylation of myosin light chain (pMLC) was used as a surrogate for ASM contraction. In parallel, phosphorylation of AKT was analogously assessed. AKT is a downstream substrate for phosphoinositide 3-kinase (PI3K) activity, can modulate the activation of the Gα12 pathway in primary human airway smooth muscle cells. These cells are the pivotal cells regulating bronchomotor tone in asthma and chronic obstructive pulmonary disease (COPD) which is emphysema or chronic bronchitis.
(§3) The analogues described herein were further assessed for potency and efficacy in inhibiting AKT and pMLC phosphorylation induced by contractile agonists, carbachol, or histamine. These contractile agonists are pivotal in causing airway smooth muscle contraction and airway obstruction in asthma and COPD.

[2] = test system: AKT phosphorylation (pAKT); test: Immunoblot analysis of AKT phosphorylation (pAKT) in airway smooth muscle cells; type: cell-based, human
Procedure: as §1, §2, §3

TrkA(h) = target: T2, TrkA(h) (Homo sapiens, UniProt P04629); test: Eurofins in vitro kinase activity assay; type: biochemical; settings: read-out: TrkA(h) kinase activity (human kinase inhibition data)
T2 construct: purchased Eurofins
T2 sequence (P04629 33-796): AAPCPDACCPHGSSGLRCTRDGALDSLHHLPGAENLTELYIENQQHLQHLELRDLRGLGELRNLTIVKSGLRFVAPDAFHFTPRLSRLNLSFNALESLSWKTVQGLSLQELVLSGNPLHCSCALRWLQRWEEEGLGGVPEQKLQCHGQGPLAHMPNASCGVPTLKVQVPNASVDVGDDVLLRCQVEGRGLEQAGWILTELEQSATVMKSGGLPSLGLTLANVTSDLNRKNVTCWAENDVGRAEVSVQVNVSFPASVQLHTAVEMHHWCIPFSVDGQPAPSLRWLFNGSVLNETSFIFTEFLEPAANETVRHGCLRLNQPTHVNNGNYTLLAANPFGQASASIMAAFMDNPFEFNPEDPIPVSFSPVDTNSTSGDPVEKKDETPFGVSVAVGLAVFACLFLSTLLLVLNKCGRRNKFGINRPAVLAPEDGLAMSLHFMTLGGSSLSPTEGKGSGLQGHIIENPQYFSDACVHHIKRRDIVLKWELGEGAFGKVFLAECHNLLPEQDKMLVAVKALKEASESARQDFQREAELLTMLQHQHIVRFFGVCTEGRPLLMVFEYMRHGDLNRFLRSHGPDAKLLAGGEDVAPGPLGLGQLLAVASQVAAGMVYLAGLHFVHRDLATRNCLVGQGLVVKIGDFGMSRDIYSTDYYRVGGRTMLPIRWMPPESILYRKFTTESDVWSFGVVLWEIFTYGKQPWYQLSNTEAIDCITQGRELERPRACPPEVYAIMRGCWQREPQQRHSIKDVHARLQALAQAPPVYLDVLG
Procedure: (§4) Using the Eurofins™ platform, a kinase activity assay was performed to identify human kinases inhibited by compound 1. To determine the effects of the compound on kinase activity, varying concentrations of compound 1 (1, 10 and 100 μM) were used with one technical replicate in a standard in vitro kinase activation assay.
(§5) This platform was used to determine the effects of compound 1 on the activity of 113 unique human kinases. Thresholds for kinase activity of interest was set at less than or equal to 60% […] (i.e., for antagonists) or enhanced activity at or above 140% (i.e., for agonists). Further, the validity of the results were confirmed by the occurrence of a dose-dependent response.

IGF-1R(h) = target: T3, IGF-1R(h) (Homo sapiens, UniProt P08069); test: Eurofins in vitro kinase activity assay; type: biochemical; settings: read-out: IGF-1R(h) kinase activity (human kinase inhibition data)
T3 construct: purchased Eurofins
T3 sequence (P08069 31-1367): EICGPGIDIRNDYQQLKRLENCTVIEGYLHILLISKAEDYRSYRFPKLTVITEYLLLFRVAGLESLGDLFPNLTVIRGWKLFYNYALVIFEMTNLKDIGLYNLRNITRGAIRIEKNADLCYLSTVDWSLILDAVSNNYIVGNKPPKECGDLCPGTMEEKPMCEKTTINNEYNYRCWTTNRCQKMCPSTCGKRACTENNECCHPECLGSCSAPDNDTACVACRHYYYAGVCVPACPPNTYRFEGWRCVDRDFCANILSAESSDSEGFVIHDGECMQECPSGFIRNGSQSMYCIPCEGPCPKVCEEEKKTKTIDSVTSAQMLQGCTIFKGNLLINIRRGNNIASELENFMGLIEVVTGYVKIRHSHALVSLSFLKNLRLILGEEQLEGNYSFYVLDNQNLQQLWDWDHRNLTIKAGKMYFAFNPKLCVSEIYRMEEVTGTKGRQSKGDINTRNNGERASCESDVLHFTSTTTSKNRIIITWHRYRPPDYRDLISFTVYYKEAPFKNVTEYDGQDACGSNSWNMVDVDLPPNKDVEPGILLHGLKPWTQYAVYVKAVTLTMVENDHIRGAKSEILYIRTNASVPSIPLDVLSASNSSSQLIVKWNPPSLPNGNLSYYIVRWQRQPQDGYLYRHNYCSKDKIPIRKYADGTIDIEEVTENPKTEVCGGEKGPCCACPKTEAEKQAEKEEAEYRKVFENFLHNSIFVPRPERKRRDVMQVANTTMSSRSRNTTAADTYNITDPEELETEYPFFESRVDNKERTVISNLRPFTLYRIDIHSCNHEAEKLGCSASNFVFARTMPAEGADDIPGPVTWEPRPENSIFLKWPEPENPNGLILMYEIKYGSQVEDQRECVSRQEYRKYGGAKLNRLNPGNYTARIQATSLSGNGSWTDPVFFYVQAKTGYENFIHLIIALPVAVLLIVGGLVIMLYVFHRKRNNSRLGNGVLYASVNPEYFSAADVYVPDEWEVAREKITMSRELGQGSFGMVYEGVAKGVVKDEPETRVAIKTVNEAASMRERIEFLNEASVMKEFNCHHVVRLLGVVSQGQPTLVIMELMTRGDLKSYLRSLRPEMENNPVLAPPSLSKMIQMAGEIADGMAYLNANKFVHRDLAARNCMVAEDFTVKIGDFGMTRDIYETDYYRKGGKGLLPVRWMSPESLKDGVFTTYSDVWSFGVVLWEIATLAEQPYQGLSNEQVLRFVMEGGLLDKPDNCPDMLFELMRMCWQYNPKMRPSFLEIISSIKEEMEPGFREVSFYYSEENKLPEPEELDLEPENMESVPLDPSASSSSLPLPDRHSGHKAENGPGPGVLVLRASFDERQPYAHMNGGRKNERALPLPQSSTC
Procedure: as §4, §5

PI3Kδ = target: T4, PI3Kδ (Homo sapiens, UniProt O00329); test: Eurofins in vitro kinase activity assay; type: biochemical
T4 construct: purchased Eurofins
Procedure: as §4, §5

MAPKAP-K2(h) = target: T5, MAPKAP-K2(h) (Homo sapiens, UniProt P49137); test: Eurofins in vitro kinase activity assay; type: biochemical
T5 construct: purchased Eurofins
T5 sequence (P49137 whole entry): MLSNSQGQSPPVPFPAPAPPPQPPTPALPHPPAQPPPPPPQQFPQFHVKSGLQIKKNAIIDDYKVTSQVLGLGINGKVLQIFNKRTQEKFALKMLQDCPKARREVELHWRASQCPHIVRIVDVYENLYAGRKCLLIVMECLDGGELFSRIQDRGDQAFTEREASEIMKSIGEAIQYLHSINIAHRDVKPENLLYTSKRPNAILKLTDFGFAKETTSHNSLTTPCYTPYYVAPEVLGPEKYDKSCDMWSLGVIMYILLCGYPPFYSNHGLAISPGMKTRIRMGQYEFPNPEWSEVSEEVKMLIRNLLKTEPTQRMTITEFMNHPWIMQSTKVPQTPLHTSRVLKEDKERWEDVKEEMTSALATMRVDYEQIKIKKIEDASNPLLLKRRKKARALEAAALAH
Procedure: as §4, §5

mTOR(h) = target: T6, mTOR(h) (Homo sapiens, UniProt P42345); test: Eurofins in vitro kinase activity assay; type: biochemical; settings: read-out: mTOR(h) kinase activity (human kinase inhibition data)
T6 construct: purchased Eurofins
Procedure: as §4, §5

ATR/ATRIP(h) = target: T7, ATR/ATRIP(h) (Homo sapiens, UniProt Q13535); test: Eurofins in vitro kinase activity assay; type: biochemical; settings: read-out: ATR/ATRIP(h) kinase activity (human kinase inhibition data)
T7 construct: purchased Eurofins
Procedure: as §4, §5

PRAK(h)/MAPKAPK5 = target: T8, PRAK(h)/MAPKAPK5 (Homo sapiens, UniProt Q8IW41); test: Eurofins in vitro kinase activity assay; type: biochemical
T8 construct: purchased Eurofins
T8 sequence (Q8IW41 1-473): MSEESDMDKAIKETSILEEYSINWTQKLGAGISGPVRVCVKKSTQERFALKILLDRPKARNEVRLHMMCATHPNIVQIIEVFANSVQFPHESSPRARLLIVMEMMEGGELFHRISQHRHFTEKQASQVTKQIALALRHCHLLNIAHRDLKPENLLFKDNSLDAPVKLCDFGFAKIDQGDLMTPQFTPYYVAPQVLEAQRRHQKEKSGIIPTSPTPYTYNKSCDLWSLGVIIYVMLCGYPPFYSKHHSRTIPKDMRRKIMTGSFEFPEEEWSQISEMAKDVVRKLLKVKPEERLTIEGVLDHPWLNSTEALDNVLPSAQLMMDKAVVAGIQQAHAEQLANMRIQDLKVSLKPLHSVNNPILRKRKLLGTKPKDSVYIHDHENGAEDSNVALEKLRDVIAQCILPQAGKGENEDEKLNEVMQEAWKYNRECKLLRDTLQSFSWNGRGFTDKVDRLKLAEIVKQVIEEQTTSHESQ
Procedure: as §4, §5

Fms(h) = target: T9, Fms(h) (Homo sapiens, UniProt P07333); test: Eurofins in vitro kinase activity assay; type: biochemical; settings: read-out: Fms(h) kinase activity (human kinase inhibition data)
T9 construct: purchased Eurofins
T9 sequence (P07333 20-972): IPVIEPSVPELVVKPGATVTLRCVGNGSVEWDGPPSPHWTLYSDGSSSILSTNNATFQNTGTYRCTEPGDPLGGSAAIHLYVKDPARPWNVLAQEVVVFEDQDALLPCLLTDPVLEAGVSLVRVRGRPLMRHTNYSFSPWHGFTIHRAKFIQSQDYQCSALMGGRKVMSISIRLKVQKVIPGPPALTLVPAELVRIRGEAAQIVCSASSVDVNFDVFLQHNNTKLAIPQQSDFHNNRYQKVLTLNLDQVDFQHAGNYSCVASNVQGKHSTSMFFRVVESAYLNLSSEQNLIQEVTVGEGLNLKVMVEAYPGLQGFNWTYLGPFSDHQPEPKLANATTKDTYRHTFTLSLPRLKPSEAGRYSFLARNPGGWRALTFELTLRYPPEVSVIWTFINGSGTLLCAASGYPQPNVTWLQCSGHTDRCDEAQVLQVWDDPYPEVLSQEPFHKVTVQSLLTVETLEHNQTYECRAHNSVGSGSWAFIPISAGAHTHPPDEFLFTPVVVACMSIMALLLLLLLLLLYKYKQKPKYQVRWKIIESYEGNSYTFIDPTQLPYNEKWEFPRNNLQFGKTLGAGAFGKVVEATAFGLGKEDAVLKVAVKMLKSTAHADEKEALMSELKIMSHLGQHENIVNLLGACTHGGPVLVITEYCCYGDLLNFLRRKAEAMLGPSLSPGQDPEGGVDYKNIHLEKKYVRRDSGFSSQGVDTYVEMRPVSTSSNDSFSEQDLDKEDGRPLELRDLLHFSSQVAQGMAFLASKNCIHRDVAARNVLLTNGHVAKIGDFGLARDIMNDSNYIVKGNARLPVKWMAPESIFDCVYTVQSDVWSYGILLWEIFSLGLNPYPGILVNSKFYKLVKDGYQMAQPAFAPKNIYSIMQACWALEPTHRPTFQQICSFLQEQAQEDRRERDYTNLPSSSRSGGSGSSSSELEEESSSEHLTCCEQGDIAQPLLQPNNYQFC
Procedure: as §4, §5

113 unique human kinases = test: Eurofins kinase activity panel; type: biochemical; settings: 1, 10 and 100 μM
Procedure: as §4, §5

[3] = compound at 100 μM (FIGS. 4A-4B)
[4] = compound at 100 μM (FIGS. 4C-4D)

CC(C)(NC(=O)Cc1ccccc1F)C(=O)N1CCOCC(Cc2cccc3ccncc23)C1 (centres unmarked) [BDH, 2-(2-fluorophenyl)-N-(1-(6-(isoquinolin-8-ylmethyl)-1,4-oxazepan-4-yl)-2-methyl-1-oxopropan-2-yl)acetamide, reference compound]
modulation of Gα12 luciferase reporter signal (agonist/antagonist) (Gα12): dose-dependent activation

Cc1ccc(Cc2ccc(C3CN(C(=O)c4cnc(C)cn4)CCO3)nc2)cc1 (centres unmarked) [Compound 2, (2-(5-(4-methylbenzyl)pyridin-2-yl)morpholino)(5-methylpyrazin-2-yl)methanone]
agonist specificity of the effect on pMLC activation [1]: specific for carbachol rather than histamine
potency and efficacy on carbachol-induced pMLC activation [1]: improved potency and efficacy
modulation of Gα12 luciferase reporter signal (agonist/antagonist) (Gα12): Gα12 antagonists

CCN1CCC(CC(=O)N2CCOC(c3ccc(-c4cccc(OC)c4)cn3)C2)CC1 (centres unmarked) [Compound 3, 2-(1-ethylpiperidin-4-yl)-1-(2-(5-(3-methoxyphenyl)pyridin-2-yl)morpholino)ethan-1-one]
pAKT ([2]; compound at 10 μM (FIGS. 4A-4B)): decrease; also recorded: significantly decreased
pAKT [2, 3]: decrease; also recorded: significantly decreased
agonist specificity of the effect on pMLC activation [1]: specific for carbachol rather than histamine
pMLC ([1]; compound at 10 μM (FIGS. 4C-4D)): decrease; also recorded: significantly decreased
pMLC [1, 4]: decrease; also recorded: significantly decreased
potency and efficacy on carbachol-induced pMLC activation [1]: improved potency and efficacy
modulation of Gα12 luciferase reporter signal (agonist/antagonist) (Gα12): Gα12 antagonists

FC(F)(F)c1cccc(Cc2ccc(C3CN(Cc4cccnc4)CCO3)nc2)c1 (centres unmarked) [Compound 5, 4-(pyridin-3-ylmethyl)-2-(5-(3-(trifluoromethyl)benzyl)pyridin-2-yl)morpholine]
inhibition of AKT phosphorylation (pAKT) by agonists ([2]; contractile agonists carbachol or histamine): inactive
agonist-induced pMLC activation ([1]; contractile agonists carbachol or histamine, FIGS. 6A-6B): inactive

O=C(CCn1ncc2ccccc21)N1CCOC(c2ccc(Cc3ccc(F)cc3)cn2)C1 (centres unmarked) [compound 1, 1-(2-(5-(4-fluorobenzyl)pyridin-2-yl)morpholino)-3-(1H-indazol-1-yl)propan-1-one]
pAKT [2, 3]: decreased
pMLC [1, 4]: decreased
activity at 1 µM (TrkA(h); compound at 1 μM): 106%
activity at 10 µM (TrkA(h); compound at 10 μM): 123%
activity at 100 µM (TrkA(h); compound at 100 μM): 41%
activity at 1 µM (IGF-1R(h); compound at 1 μM): 103%
activity at 10 µM (IGF-1R(h); compound at 10 μM): 91%
activity at 100 µM (IGF-1R(h); compound at 100 μM): 61%
Aggregate Mean (of raw counts) (PI3Kδ; compound at 1 μM): 16175
activity at 1 µM (PI3Kδ; compound at 1 μM, read-out: Kinase Activity (%), mean of replicates): 91%
Raw Counts (PI3Kδ; compound at 1 μM, single replicates): 15209.80926 and 17139.70182
Kinase Activity (%) (PI3Kδ; compound at 1 μM, single replicates, 1 µM): 86%
activity at 1 µM (PI3Kδ; compound at 1 μM, single replicates, read-out: Kinase Activity (%)): 95%
Aggregate Mean (of raw counts) (PI3Kδ; compound at 10 μM): 15960
activity at 10 µM (PI3Kδ; compound at 10 μM, read-out: Kinase Activity (%), mean of replicates): 92%
Raw Counts (PI3Kδ; compound at 10 μM, single replicates): 15948.27586 and 15971.06288
activity at 10 µM (PI3Kδ; compound at 10 μM, single replicates, read-out: Kinase Activity (%)): 92%
Aggregate Mean (of raw counts) (PI3Kδ; compound at 100 μM): 17900
activity at 100 µM (PI3Kδ; compound at 100 μM, read-out: Kinase Activity (%), mean of replicates): 83%
Raw Counts (PI3Kδ; compound at 100 μM, single replicates): 17495.26814 and 18305.46265
Kinase Activity (%) (PI3Kδ; compound at 100 μM, single replicates, 100 µM): 81%
activity at 100 µM (PI3Kδ; compound at 100 μM, single replicates, read-out: Kinase Activity (%)): 85%
MAPKAP-K2 inhibition, dose dependence (MAPKAP-K2(h); 1, 10 and 100 μM): inhibited in a dose-dependent manner
activity at 1 µM (MAPKAP-K2(h); compound at 1 μM, read-out: MAPKAP-K2(h) kinase activity (human kinase inhibition data)): 90%
activity at 10 µM (MAPKAP-K2(h); compound at 10 μM, read-out: MAPKAP-K2(h) kinase activity (human kinase inhibition data)): 77%
activity at 100 µM (MAPKAP-K2(h); compound at 100 μM, read-out: MAPKAP-K2(h) kinase activity (human kinase inhibition data)): 65%
activity at 1 µM (mTOR(h); compound at 1 μM): 103%
activity at 10 µM (mTOR(h); compound at 10 μM): 104%
activity at 100 µM (mTOR(h); compound at 100 μM): 70%
activity at 1 µM (ATR/ATRIP(h); compound at 1 μM): 101%
activity at 10 µM (ATR/ATRIP(h); compound at 10 μM): 91%
activity at 100 µM (ATR/ATRIP(h); compound at 100 μM): 65%
PRAK/MAPKAPK5 inhibition, dose dependence (PRAK(h)/MAPKAPK5; 1, 10 and 100 μM): inhibited in a dose-dependent manner
activity at 1 µM (PRAK(h)/MAPKAPK5; compound at 1 μM, read-out: PRAK(h)/MAPKAPK5 kinase activity (human kinase inhibition data)): 115%
activity at 10 µM (PRAK(h)/MAPKAPK5; compound at 10 μM, read-out: PRAK(h)/MAPKAPK5 kinase activity (human kinase inhibition data)): 92%
activity at 100 µM (PRAK(h)/MAPKAPK5; compound at 100 μM, read-out: PRAK(h)/MAPKAPK5 kinase activity (human kinase inhibition data)): 40%
activity at 1 µM (Fms(h); compound at 1 μM): 95%
activity at 10 µM (Fms(h); compound at 10 μM): 94%
activity at 100 µM (Fms(h); compound at 100 μM): 64%
specificity: effect on the overwhelming majority of the 113 human kinases (113 unique human kinases): little to no effect
number of kinases exhibiting dose dependent inhibition (113 unique human kinases; of 113 human kinases): 7
number of kinases with agonism observed (113 unique human kinases; of 113 human kinases, none relevant in human airway smooth muscle): 4
modulation of Gα12 luciferase reporter signal (agonist/antagonist) (Gα12): inhibition
